Assay results published in PubChem BioAssay (NCI).
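1) Cells in 96-well plates. 2) Compound, 48 h, 5 concentrations. 3) Linear interpolation between surrounding doses. 4) Unreached endpoint = highest concentration. GI50 = concentration required for 50% inhibition of growth. TGI is the concentration that stops growth completely.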

Columns and labels:
Assay in all cases: DTP human tumour cell line panel, 48 h
RPMI-8226 leukemia = system: RPMI-8226 leukemia
SR leukemia = system: SR leukemia
SF-539 CNS = system: SF-539 CNS
OVCAR-5 ovarian = system: OVCAR-5 ovarian
BT-549 breast = system: BT-549 breast
MDA-MB-435 = system: MDA-MB-435
NCI-H460 lung = system: NCI-H460 lung
NCI-H23 lung = system: NCI-H23 lung
NCI/ADR-RES ovarian = system: NCI/ADR-RES ovarian
HS 578T breast = system: HS 578T breast
A498 renal = system: A498 renal
SK-MEL-2 melanoma = system: SK-MEL-2 melanoma
SK-MEL-5 melanoma = system: SK-MEL-5 melanoma
SK-OV-3 ovarian = system: SK-OV-3 ovarian
MALME-3M melanoma = system: MALME-3M melanoma
COLO 205 colon = system: COLO 205 colon
ACHN renal = system: ACHN renal
RXF 393 renal = system: RXF 393 renal
MCF7 breast = system: MCF7 breast
SNB-75 CNS = system: SNB-75 CNS
KM12 colon = system: KM12 colon
SK-MEL-28 melanoma = system: SK-MEL-28 melanoma
M14 melanoma = system: M14 melanoma
HT29 colon = system: HT29 colon
TK-10 renal = system: TK-10 renal
IGROV1 ovarian = system: IGROV1 ovarian
CAKI-1 renal = system: CAKI-1 renal
HCT-15 colon = system: HCT-15 colon

SMILES: CC(C)=C[C@@H]1C[C@H](C)[C@H]2CC[C@H](C)c3c(O)c(OC4OCC(O)C(O)C4O)c(C)c1c32 (stereo not given in full)
- GI50 (RPMI-8226 leukemia): 10.8 µM
- TGI (RPMI-8226 leukemia): 22.9 µM
- GI50 (SR leukemia): 6.92 µM
- TGI (SR leukemia): 20.5 µM
- GI50 (SF-539 CNS): 18.7 µM
- TGI (SF-539 CNS): 34.6 µM
- GI50 (OVCAR-5 ovarian): 12.6 µM
- TGI (OVCAR-5 ovarian): 25.2 µM
- GI50 (BT-549 breast): 21.6 µM
- TGI (BT-549 breast): 39.9 µM
- GI50 (MDA-MB-435): 11.4 µM
- TGI (MDA-MB-435): 24.3 µM
- GI50 (NCI-H460 lung): 12.3 µM
- TGI (NCI-H460 lung): 24.7 µM
- GI50 (NCI-H23 lung): 12.8 µM
- TGI (NCI-H23 lung): 25.5 µM
- GI50 (NCI/ADR-RES ovarian): 10.2 µM
- TGI (NCI/ADR-RES ovarian): 21.9 µM
- GI50 (HS 578T breast): 15.4 µM
- TGI (HS 578T breast): 32.1 µM
- GI50 (A498 renal): 13.4 µM
- TGI (A498 renal): 27.5 µM
- GI50 (SK-MEL-2 melanoma): 20.8 µM
- TGI (SK-MEL-2 melanoma): 36.4 µM
- GI50 (SK-MEL-5 melanoma): 12.3 µM
- TGI (SK-MEL-5 melanoma): 25 µM
- GI50 (SK-OV-3 ovarian): 18.9 µM
- TGI (SK-OV-3 ovarian): 33.2 µM
- GI50 (MALME-3M melanoma): 14.1 µM
- TGI (MALME-3M melanoma): 27.6 µM
- GI50 (COLO 205 colon): 15.5 µM
- TGI (COLO 205 colon): 29.7 µM
- GI50 (ACHN renal): 14.6 µM
- TGI (ACHN renal): 27.8 µM
- GI50 (RXF 393 renal): 10.9 µM
- TGI (RXF 393 renal): 23.4 µM
- GI50 (MCF7 breast): 13.1 µM
- TGI (MCF7 breast): 25.8 µM
- GI50 (SNB-75 CNS): 12.7 µM
- TGI (SNB-75 CNS): 25.9 µM
- GI50 (KM12 colon): 12.7 µM
- TGI (KM12 colon): 25.3 µM
- GI50 (SK-MEL-28 melanoma): 14.4 µM
- TGI (SK-MEL-28 melanoma): 27.7 µM
- GI50 (M14 melanoma): 15.8 µM
- TGI (M14 melanoma): 39.3 µM
- GI50 (HT29 colon): 11.7 µM
- TGI (HT29 colon): 24.7 µM
- GI50 (TK-10 renal): 15.4 µM
- TGI (TK-10 renal): 28.9 µM
- GI50 (IGROV1 ovarian): 12 µM
- TGI (IGROV1 ovarian): 24.3 µM
- GI50 (CAKI-1 renal): 3.91 µM
- TGI (CAKI-1 renal): 18.7 µM
- GI50 (HCT-15 colon): 14 µM
